Laboratory results reported in patent US9605003B2, “Heterocyclic compounds and uses thereof” (Infinity Pharmaceuticals, Inc., priority 2011, dated 2017).
Structures can show the parent of a compound that is named as a salt. Each block holds one molecule with its values, some of them ahead of it.

What was measured:
NZB/W model = details: prophylactic and therapeutic model; cited from earlier work
PI3Kβ = target: T1, PI3Kβ (Homo sapiens, UniProt P42338); assay: PI3 Kinase HTRF assay, PI3Kβ; assay type: biochemical; details: Between 1 μM and 10 μM; read-out: PI3K β IC50
T1 construct: purchased Millipore Corporation 14-603-K
From the text: (§1) A PI3-Kinase HTRF® assay kit (cat No. 33-016) purchased from Millipore Corporation was used to screen compounds provided herein. This assay used specific, high affinity binding of the GRP1 pleckstrin homology (PH) domain to PIP3, the product of a Class 1A or 1B PI3 Kinase acting on its physiological substrate PIP2. During the detection phase of the assay, a complex was generated between the GST-tagged PH domain and biotinylated short chain PIP3. The biotinylated PIP3 and the GST-tagged PH domain recruited fluorophores (Streptavidin-Allophycocyanin and Europium-labeled anti-GST respectively) to form the fluorescence resonance energy transfer (FRET) architecture, generating a stable time-resolved FRET signal. The FRET complex was disrupted in a competitive manner by non-biotinylated PIP3, a product formed in the PI3 Kinase assay.
(§2) PI3 Kinase α, β, γ and δ activity was assayed using the PI3 Kinase HTRF® assay kit (catalogue No. 33-016) purchased from Millipore Corporation. Purified recombinant PI3Kα (catalogue No. 14-602-K), PI3Kβ (catalogue No. 14-603-K), PI3Kγ (catalogue No. 14-558-K) and PI3Kδ (catalogue No. 14-604-K) were obtained from Millipore Corporation. Purified recombinant PI3K enzyme was used to catalyze the phosphorylation of phosphatidylinositol 4,5-bisphosphate (PIP2 at 10 μM) to phosphatidylinositol 3,4,5-trisphosphate (PIP3) in the presence of 10 μM ATP. The assay was carried out in 384-well format and detected using a Perkin Elmer EnVision Xcite Multilabel Reader. Emission ratios were converted into percent inhibitions and imported into GraphPad Prism software. The concentration necessary to achieve inhibition of enzyme activity by 50% (IC50) was calculated using concentrations ranging from 20 μM to 0.1 nM (12-point curve). IC50 values were determined using a nonlinear regression model available in GraphPad Prism 5.

Balb/c splenic B cells = assay: B cell activation and proliferation assay (Alamar Blue); assay type: cell-based; details: Mus musculus
Method: The ability of one or more subject compounds to inhibit B cell activitation and proliferation is determined according to standard procedures known in the art. For example, an in vitro cellular proliferation assay is established that measures the metabolic activity of live cells. The assay is performed in a 96 well microtiter plate using Alamar Blue reduction. Balb/c splenic B cells are purified over a Ficoll-Paque™ PLUS gradient followed by magnetic cell separation using a MACS B cell Isolation Kit (Miletenyi). Cells are plated in 90 μl at 50,000 cells/well in B Cell Media (RPMI+10% FBS+Penn/Strep+50 μM bME+5 mM HEPES). A compound provided herein is diluted in B Cell Media and added in a 10 μl volume. Plates are incubated for 30 min at 37° C. and 5% CO2 (0.2% DMSO final concentration). A 50 μl B cell stimulation cocktail is then added containing either 10 μg/ml LPS or 5 μg/ml F(ab′)2 Donkey anti-mouse IgM plus 2 ng/ml recombinant mouse IL4 in B Cell Media. Plates are incubated for 72 hours at 37° C. and 5% CO2. A volume of 15 μL of Alamar Blue reagent is added to each well and plates are incubated for 5 hours at 37° C. and 5% CO2. Alamar Blue fluoresce is read at 560Ex/590Em, and IC50 or EC50 values are calculated using GraphPad Prism 5.

[1] = system: phospho-AKT in RAJI cells; assay: PI3Kδ selective cellular assay, phospho-AKT in anti-IgM stimulated RAJI cells; assay type: cell-based; details: Homo sapiens; RAJI cell model
From the text: A compound's ability in selectively inhibiting PI3Kδ can be assessed using RAJI cells, i.e., B lymphocyte cells derived from lymphoma patients. Briefly, serum-starved RAJI cells are stimulated with anti-human IgM, thereby causing signaling through the B-cell receptors, as described in, for example, He et al., Leukemia Research (2009) 33: 798-802. B-cell receptor signaling is important for the activation, differentiation, and survival of B cells and certain B-cell derived cancers. Reduction of phospho-AKT is indicative of compounds that may inhibit B-cell proliferation and function in certain diseases. By monitoring the reduction of phospho-AKT in stimulated RAJI cells (using for example, phospho-AKT antibodies), a compound's potential efficacy in selectively inhibiting PI3Kδ can be assessed.
Certain compounds provided herein (e.g., Compounds 5, 38, 103, 105, 106, 107, 108, and 109) were tested in RAJI cell model using procedures as described above.

[2] = system: phospho-AKT in RAW 264.7 cells; assay: PI3Kγ selective cellular assay, phospho-AKT in C5a stimulated RAW 264.7 cells; assay type: cell-based; details: Mus musculus, RAW264.7, RAW 264.7 cell model
From the text: A compound's ability in selectively inhibiting PI3Kγ can be assessed using RAW264.7 macrophages. Briefly, serum-starved PAW264.7 cells are stimulated with a known GPCR agonist C5a. (See, e.g., Camps et al., Nature Medicine (2005) 11(9): 936-943). Cells can be treated with test compounds prior to, simultaneously with, or subsequent to the stimulation by C5a. RAW 264.7 cells respond to the complement component fragment C5a through activation of the C5a receptor, and the C5a receptor activates macrophages and induces cell migration. Test compounds' ability to inhibit C5a-mediated AKT phosphorylation is indicative of selective inhibition of PI3Kγ. Thus, by monitoring the reduction of phospho-AKT in stimulated RAW 264.7 cells (using for example, phospho-AKT antibodies), a compound's potential efficacy in selectively inhibiting PI3Kγ can be assessed.
Certain compounds provided herein (e.g., Compounds 5, 38, 103, 105, 106, 107, 108, and 109) were tested in RAW 264.7 cell model using procedures as described above.

[3] = system: phospho-AKT in SKOV-3 cells; assay: PI3Kα selective cellular assay, phospho-AKT in SKOV-3 cells; assay type: cell-based; details: Homo sapiens, SK-OV-3, SKOV-3 cell model
From the text: (§3) A compound's ability in selectively inhibiting PI3Kα can be assessed using SKOV-3 cells, i.e., human ovarian carcinoma cell line. Briefly, SKOV-3 cells, in which mutant PI3Kα is constitutively active, can be treated with test compounds. Test compounds' ability to inhibit AKT phosphorylation in SKOV-3 cells, therefore, is indicative of selective inhibition of PI3Kα. Thus, by monitoring the reduction of phospho-AKT in SKOV-3 cells (using for example, phospho-AKT antibodies), a compound's potential efficacy in selectively inhibiting PI3Kα can be assessed.
Certain compounds provided herein (e.g., Compounds 5, 38, 103, and 106) were tested in SKOV-3 cell model using procedures as described above.

[4] = system: phospho-AKT in 786-O cells; assay: PI3Kβ selective cellular assay, phospho-AKT in 786-O cells; assay type: cell-based; details: Homo sapiens, 786-0, 786-O cell model
From the text: as §3, with “PI3Kβ” for “PI3Kα”, “786-O” for “SKOV-3”, “kidney” for “ovarian”, “PI3Kβ” for “mutant PI3Kα”, “PI3Kβ.” for “PI3Kα.”
Certain compounds provided herein (e.g., Compounds 5, 38, 103, and 106) were tested in 786-O cell model using procedures as described above.

PI3Kα = target: T2, PI3Kα (Homo sapiens, UniProt P42336); assay: PI3 Kinase HTRF assay, PI3Kα; assay type: biochemical; details: Between 1 μM and 10 μM; read-out: PI3K α IC50
T2 construct: purchased Millipore Corporation 14-602-K
T2 sequence (P42336 whole entry): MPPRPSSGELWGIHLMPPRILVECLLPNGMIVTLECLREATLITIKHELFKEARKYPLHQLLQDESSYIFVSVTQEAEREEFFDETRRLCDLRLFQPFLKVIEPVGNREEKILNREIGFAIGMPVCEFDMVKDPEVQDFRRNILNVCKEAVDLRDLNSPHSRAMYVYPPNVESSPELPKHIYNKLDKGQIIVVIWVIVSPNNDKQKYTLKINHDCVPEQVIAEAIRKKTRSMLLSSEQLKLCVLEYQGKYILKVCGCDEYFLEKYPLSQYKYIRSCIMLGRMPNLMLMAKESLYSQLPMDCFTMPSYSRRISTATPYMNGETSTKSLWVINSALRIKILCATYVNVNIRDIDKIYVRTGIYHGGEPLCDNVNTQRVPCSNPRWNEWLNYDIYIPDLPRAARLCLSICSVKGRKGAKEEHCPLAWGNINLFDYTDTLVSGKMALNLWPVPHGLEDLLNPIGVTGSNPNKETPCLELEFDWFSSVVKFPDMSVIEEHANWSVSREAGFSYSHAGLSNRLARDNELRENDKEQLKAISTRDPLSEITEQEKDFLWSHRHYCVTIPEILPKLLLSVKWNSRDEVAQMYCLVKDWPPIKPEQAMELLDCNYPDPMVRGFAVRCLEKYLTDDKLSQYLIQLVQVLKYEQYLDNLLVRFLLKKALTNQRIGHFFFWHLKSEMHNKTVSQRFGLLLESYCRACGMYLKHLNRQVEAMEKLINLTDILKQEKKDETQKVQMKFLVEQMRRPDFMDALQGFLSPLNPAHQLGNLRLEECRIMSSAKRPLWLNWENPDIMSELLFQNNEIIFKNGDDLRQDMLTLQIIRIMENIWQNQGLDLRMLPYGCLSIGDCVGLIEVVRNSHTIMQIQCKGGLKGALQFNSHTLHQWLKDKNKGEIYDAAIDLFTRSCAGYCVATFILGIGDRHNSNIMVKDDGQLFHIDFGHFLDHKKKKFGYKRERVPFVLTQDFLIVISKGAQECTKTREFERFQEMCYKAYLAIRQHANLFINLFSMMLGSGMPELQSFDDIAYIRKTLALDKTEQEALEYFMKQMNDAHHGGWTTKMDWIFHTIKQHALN
T2 sequence (P27986 whole entry partner): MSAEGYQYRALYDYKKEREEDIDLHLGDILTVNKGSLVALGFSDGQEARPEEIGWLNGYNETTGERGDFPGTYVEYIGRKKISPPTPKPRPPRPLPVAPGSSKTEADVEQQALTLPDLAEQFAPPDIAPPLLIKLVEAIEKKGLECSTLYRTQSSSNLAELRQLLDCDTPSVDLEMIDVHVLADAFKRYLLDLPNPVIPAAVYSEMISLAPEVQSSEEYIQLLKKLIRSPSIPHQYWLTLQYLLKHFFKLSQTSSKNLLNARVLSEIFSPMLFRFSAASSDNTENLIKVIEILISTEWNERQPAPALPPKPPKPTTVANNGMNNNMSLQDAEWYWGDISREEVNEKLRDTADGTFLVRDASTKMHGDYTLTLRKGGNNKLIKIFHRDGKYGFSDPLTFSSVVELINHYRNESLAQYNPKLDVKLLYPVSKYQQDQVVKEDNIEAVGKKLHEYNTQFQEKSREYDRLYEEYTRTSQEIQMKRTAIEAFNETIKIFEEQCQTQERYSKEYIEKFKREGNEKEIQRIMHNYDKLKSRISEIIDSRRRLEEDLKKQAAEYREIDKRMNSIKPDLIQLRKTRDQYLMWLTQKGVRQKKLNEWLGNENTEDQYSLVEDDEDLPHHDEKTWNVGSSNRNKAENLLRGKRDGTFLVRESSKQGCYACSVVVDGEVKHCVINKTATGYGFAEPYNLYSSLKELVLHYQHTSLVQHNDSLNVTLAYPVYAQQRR
From the text: as §1, §2

PI3Kδ = target: T3, PI3Kδ (Homo sapiens, UniProt O00329); assay: PI3 Kinase HTRF assay, PI3Kδ; assay type: biochemical; details: Between 1 μM and 10 μM; read-out: PI3K δ IC50
T3 construct: purchased Millipore Corporation 14-604-K
T3 sequence (O00329 whole entry): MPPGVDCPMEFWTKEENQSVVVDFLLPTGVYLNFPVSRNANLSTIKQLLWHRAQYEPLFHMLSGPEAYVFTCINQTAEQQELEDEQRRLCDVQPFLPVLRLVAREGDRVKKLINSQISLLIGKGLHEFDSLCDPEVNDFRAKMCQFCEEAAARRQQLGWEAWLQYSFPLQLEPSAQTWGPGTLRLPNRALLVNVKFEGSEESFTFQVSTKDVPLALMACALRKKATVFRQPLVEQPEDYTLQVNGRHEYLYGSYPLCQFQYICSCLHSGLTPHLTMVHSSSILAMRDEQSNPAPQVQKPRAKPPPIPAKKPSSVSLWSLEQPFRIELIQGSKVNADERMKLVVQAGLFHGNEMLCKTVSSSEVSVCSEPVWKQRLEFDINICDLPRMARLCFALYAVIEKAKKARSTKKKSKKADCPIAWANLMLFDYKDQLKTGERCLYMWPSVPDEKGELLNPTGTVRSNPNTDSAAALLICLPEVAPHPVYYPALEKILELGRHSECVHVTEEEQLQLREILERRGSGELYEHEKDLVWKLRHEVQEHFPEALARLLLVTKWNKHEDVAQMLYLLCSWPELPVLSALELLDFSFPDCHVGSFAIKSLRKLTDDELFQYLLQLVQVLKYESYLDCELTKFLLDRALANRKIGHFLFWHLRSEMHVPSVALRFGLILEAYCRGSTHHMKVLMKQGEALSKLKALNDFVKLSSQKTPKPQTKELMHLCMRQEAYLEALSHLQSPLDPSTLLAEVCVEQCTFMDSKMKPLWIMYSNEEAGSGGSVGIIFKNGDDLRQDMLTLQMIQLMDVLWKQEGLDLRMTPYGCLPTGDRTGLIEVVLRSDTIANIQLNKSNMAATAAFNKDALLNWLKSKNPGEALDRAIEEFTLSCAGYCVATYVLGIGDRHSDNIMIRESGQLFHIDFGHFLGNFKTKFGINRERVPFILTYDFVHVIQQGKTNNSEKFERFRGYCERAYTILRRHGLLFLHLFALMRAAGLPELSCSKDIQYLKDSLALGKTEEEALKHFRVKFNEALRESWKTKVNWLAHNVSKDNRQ
T3 sequence (P27986 whole entry partner): as the sequence (P27986 whole entry partner) above
From the text: as §1, §2

PI3Kγ = target: T4, PI3Kγ (Homo sapiens, UniProt P48736); assay: PI3 Kinase HTRF assay, PI3Kγ; assay type: biochemical; details: Between 1 μM and 10 μM; read-out: PI3K γ IC50
T4 construct: purchased Millipore Corporation 14-558-K
T4 sequence (P48736 whole entry): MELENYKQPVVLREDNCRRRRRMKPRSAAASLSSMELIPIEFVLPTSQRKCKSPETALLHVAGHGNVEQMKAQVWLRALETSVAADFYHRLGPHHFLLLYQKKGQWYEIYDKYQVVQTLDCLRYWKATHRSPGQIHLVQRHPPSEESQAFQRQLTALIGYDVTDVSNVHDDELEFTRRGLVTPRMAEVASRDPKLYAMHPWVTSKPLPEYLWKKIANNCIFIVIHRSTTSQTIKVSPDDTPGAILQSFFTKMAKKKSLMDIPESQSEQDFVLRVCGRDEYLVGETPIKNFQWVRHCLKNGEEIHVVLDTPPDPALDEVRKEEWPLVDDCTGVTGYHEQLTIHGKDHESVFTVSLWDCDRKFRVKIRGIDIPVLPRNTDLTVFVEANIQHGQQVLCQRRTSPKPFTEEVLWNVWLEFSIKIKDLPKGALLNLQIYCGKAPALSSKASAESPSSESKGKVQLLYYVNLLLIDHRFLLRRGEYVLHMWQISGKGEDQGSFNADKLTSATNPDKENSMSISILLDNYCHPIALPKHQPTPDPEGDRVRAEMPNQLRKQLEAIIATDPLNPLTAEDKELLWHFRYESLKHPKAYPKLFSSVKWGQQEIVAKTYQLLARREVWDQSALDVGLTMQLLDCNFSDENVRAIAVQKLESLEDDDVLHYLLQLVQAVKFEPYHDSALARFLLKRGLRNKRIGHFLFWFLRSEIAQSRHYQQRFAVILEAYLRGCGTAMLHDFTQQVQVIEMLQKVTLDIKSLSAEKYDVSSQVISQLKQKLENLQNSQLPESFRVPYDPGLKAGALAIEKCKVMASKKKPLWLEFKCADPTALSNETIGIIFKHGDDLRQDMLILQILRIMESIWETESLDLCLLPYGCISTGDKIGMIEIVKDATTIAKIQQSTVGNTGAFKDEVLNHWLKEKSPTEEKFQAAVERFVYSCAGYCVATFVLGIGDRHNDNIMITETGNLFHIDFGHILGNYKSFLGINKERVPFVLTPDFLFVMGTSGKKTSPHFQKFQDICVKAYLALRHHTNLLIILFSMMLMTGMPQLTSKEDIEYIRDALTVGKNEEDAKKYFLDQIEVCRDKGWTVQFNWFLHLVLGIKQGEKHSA
From the text: as §1, §2

B6.Sle1z.Sle3z model = details: cited from earlier work
[5] = PBS pH 7.4, 37° C., 24 hours, 5 μM; cited from earlier work
[6] = system: p190 transduced leukemic cells; details: about 70 mg/kg twice daily; cited from earlier work
[7] = human plasma, 5 μM; cited from earlier work
[8] = range between 100 nM and 1 μM (bounds carry own units)

Structure (SMILES): CC(C)C[C@H](NC(=O)[C@H](Cc1ccccc1)NC(=O)c1cnccn1)B(O)O [Bortezimib, bortezomib]
disease in NZB/W model (NZB/W model): effective at blocking disease

IC50 (PI3Kβ): 1000 to 10000 nM | IC50 [1]: < 100 nM | IC50 [2]: < 100 nM | IC50 [3, 8]: 100 to 1000 nM | IC50 [4]: 1000 to 10000 nM
Structure (SMILES): C[C@H](Nc1ncnc2scnc12)c1cc2cccc(-c3cnn(C)c3)c2c(=O)n1-c1ccccc1 [Compound 5]
EC50 (Balb/c splenic B cells; Less than 100 nanoMolar): < 100 nM

IC50 (PI3Kα): 1000 to 10000 nM | IC50 (PI3Kβ): 1000 to 10000 nM | IC50 [1]: < 100 nM | IC50 [2, 8]: 100 to 1000 nM | IC50 [3]: 1000 to 10000 nM | IC50 [4]: 1000 to 10000 nM
Structure (SMILES): COc1ncc(-c2cccc3cc([C@H](C)Nc4ncnc5scnc45)n(-c4ccccc4)c(=O)c23)cn1 [Compound 38]
EC50 (Balb/c splenic B cells; Less than 100 nanoMolar): < 100 nM

IC50 (PI3Kδ): 1000 to 10000 nM | IC50 (PI3Kγ): 1000 to 10000 nM
Structure (SMILES): C[C@H](Nc1ncnc2scnc12)c1cc2cccc(-c3cnc4c(c3)CCCC4)c2c(=O)n1-c1ccccc1 [Compound 59]
EC50 (Balb/c splenic B cells; Between 1 μM and 10 μM): 1000 to 10000 nM

IC50 (PI3Kδ): 1000 to 10000 nM
Structure (SMILES): Cc1nc2c(N[C@@H](C)c3cc4cccc(Cl)c4c(=O)n3-c3cccc(F)c3)ncnc2s1 [Compound 78]

IC50 (PI3Kδ): 1000 to 10000 nM | IC50 (PI3Kγ): 1000 to 10000 nM
Structure (SMILES): Cc1nc2c(N[C@@H](C)c3cc4cccc(-c5cnn(C)c5)c4c(=O)n3-c3ccccc3)ncnc2s1 [Compound 79]

IC50 (PI3Kδ): 1000 to 10000 nM | IC50 (PI3Kγ): 1000 to 10000 nM
Structure (SMILES): C[C@H](Nc1ncnc2scnc12)c1cc2cccc(C(=O)O)c2c(=O)n1-c1ccccc1 [Compound 84]
EC50 (Balb/c splenic B cells; Between 100 nM and 1 μM): 100 to 1000 nM

IC50 (PI3Kα): 1000 to 10000 nM | IC50 (PI3Kβ): 1000 to 10000 nM | IC50 [1]: < 100 nM | IC50 [2, 8]: 100 to 1000 nM | IC50 [3, 8]: 100 to 1000 nM | IC50 [4, 8]: 100 to 1000 nM
Structure (SMILES): CC(C)n1c([C@H](C)Nc2ncnc3scnc23)cc2cccc(-c3ccc(=O)n(C)c3)c2c1=O [Compound 103]

IC50 (PI3Kα): 1000 to 10000 nM | IC50 (PI3Kβ): 1000 to 10000 nM | IC50 [1]: < 100 nM | IC50 [2]: 1000 to 10000 nM | IC50 [3, 8]: 100 to 1000 nM | IC50 [4, 8]: 100 to 1000 nM
Structure (SMILES): COc1ncc(-c2cccc3cc([C@H](C)Nc4ncnc5scnc45)n(-c4ccon4)c(=O)c23)cn1 [Compound 106]

Structure (SMILES): CO[C@H]1C[C@@H]2CC[C@@H](C)[C@@](O)(O2)C(=O)C(=O)N2CCCC[C@H]2C(=O)O[C@H]([C@H](C)C[C@@H]2CC[C@@H](OCCO)[C@H](OC)C2)CC(=O)[C@H](C)/C=C(\C)[C@@H](O)[C@@H](OC)C(=O)[C@H](C)C[C@H](C)/C=C/C=C/C=C/1C [RAD001, everolimus]
lupus symptoms (B6.Sle1z.Sle3z model): ameliorate lupus symptoms

Structure (SMILES): O=C(O)CCCc1ccc(N(CCCl)CCCl)cc1 [chlorambucil]
chemical stability [5]: largely hydrolyzed over the course of 24 hours

Structure (SMILES): Cc1ccc(NC(=O)c2ccc(CN3CCN(C)CC3)cc2)cc1Nc1nccc(-c2cccnc2)n1 [imatinib, Imatinib Mesylate]
leukemogenesis [6]: delay but not cure leukemogenesis

Structure (SMILES): CC(C)[N+](C)(CCOC(=O)C1c2ccccc2Oc2ccccc21)C(C)C [propantheline]
plasma stability [7]: intermediate plasma stability

Structure (SMILES): CCCOc1cc(N)ccc1C(=O)OCCN(CC)CC [propoxycaine]
plasma stability [7]: low plasma stability
